Experimental data published in patent US7465471B2, “Palatability of aquaculture feed” (Novus International, Inc., priority 2003, dated 2008).
“And” between values parts separate entries of the source, which are not always exact repeats. Identical values can stand only once. Like-named read-outs stand apart in the source and are kept apart here.

Legend:
[1] = test system: cats; experiment: No-choice acceptance of food, cats (Example 24); assay type: in vivo; details: Feline
Description: (§1) Acceptance of food containing […]® or DLM was studied to evaluate dietary consumption under no-choice conditions. […] The urine pH of six of the cats was also monitored. The diets described in Tables 39 and 40 above were used.

[2] = test system: dogs; experiment: No-choice acceptance of food, dogs (Example 24); assay type: in vivo; details: Canine
Description: as §1

[3] = test system: mold; experiment: Mold growth in starter mash by CO2 formation in headspace (Examples 7, 8); details: for mold growth (CO2 in headspace), words: 0.2% in starter mash
Experimental: Fungal growth in basal starter mash was studied in compositions supplemented with DLM or Alimet® as the methionine source. Total microbial growth was monitored by measuring carbon dioxide (CO2) formation in sealed vessels at 28° C. over time.
The technique of using a closed system and measuring CO2 formation has been verified as an approximation of the conditions found in grain storage bins. See, e.g., Muir et al., Trans. ASAE, 28(5) 1673-1675 (1985), the contents of which are hereby incorporated by reference in their entirety.
A mash starter mash feed (formulation shown in Table 9, below) was subdivided into three groups: basal (control), 0.2% DLM, or 0.2% Alimet®. The feed studied had no commercial mold inhibitors added, and is representative of a typical broiler feed.
Initial moisture of the feed was 10.8%. After the addition of Alimet® or DLM, the moisture of the samples was adjusted by the addition of 2%, 4%, or 6% sterile distilled water to promote mold growth, achieving three moisture groups: […].
For each study, four replicate samples of each moisture group were mixed, and 600 g of the mixture was placed into 1 L containers, sealed, and placed at 28° C. in a temperature-controlled room. Draeger Detector tubes (CO2-measuring, obtained from Fisher Scientific) were used to measure the developed CO2 at different days following vessel sealing (two measurements were made per week). Draeger Short-Term Detector Tubes are glass tubes filled with inert carrier and an indicating reagent. The reagent produces a colorimetric indication in the presence of a particular gas (CO2). The concentration of gas is read directly from the discoloration on the tube's printed scale.
The specific mold species present were not identified. Statistical analysis was accomplished by using Duncan's multiple range test (SAS). Different letters on individual time points in FIGS. 9-11 indicate statistical differences of P<0.05.
The experiment described above in Example 7 was repeated with blends of 2.0 lb/ton, 1.5 lb/ton, 1.0 lb/ton or 0.5 lb/ton of 65% propionic acid and either […]. The blends were prepared according to the matrix outlined in Table 8, below. The 65% propionic acid was buffered with ammonium hydroxide to a pH of 5.5.

[4] = test system: E. coli; experiment: E. coli colony counts over time in soy broth at pH 4 or 7.3 (Example 5); assay type: cell-based; details: FIG. 5
Experimental: The cultures were incubated, and colony counts performed at increasing times.

[5] = test system: E. coli; assay type: cell-based; details: for Δ log: Table 2, 4 h, initial 5.24
Experimental: Colony counts were performed according to standard operating procedures.

[6] = test system: Lactobacillus plantarum; experiment: L. plantarum colony counts in broth at pH 3.5 (Example 16); assay type: cell-based; details: log 6 hours − log initial (5.61)
Experimental: Fresh overnight culture L. plantarum in Brain Heart Infusion broth is used to inoculate medium 5 at a log 4.1 cfu/mL at pH 3.5. The tubes are incubated under oxygen reduced atmosphere for 6 hours at 37° C. Colony counts are performed according standard procedures.

[7] = test system: S. enteritidis; experiment: S. enteritidis colony counts in broth (Examples 1-3, 17)
[8] = test system: C. jejuni; experiment: C. jejuni colony counts in broth (Example 1); assay type: cell-based; details: for Δ log: Table 4, 6 h, initial 5.23
Experimental: C. jejuni grown on Campylobacter blood-free selective agar was used for inoculation. Preston broth was incubated under reduced oxygen atmosphere for 6 hours at 37° C. Colony counts were performed.

[9] = test system: L. plantarum; experiment: L. plantarum colony counts in broth (Example 1); assay type: cell-based; details: for Δ log: Table 3, 6 h, log sample − log initial (5.04)
Experimental: The fresh overnight culture of L. plantarum in brain heart infusion broth were used to inoculate medium 5. The test tubes were incubated under reduced oxygen atmosphere for 6 hours at 37° C. Colony counts were performed.

CSCCC(N)C(=O)O (racemic) [DLM, DL-methionine]
Total grams consumed, supplemented food ([1]; DLM 0.25%): 1,842 grams | Total grams consumed, supplemented food ([1]; DLM 0.3%): 1,754 grams | Total grams consumed, supplemented food ([2]; DLM 0.1%): 11,244 grams | Total grams consumed, supplemented food ([2]; DLM 0.15%): 13,542 grams | mold growth (CO2 in headspace), words ([3]; 12.8% moisture, FIG. 11): sharp increase in mold growth after only twenty days | mold growth (CO2 in headspace), words ([3]; 16.8% moisture, FIG. 9): showed mold growth within two days | mold growth, overall comparison ([3]; FIGS. 9, 10, 11, vs untreated and each other): more likely to develop mold

O=CO [formic acid]
decrease of colony counts of E. coli vs hydrochloric acid [4]: better than hydrochloric acid | Δ log ([5]; 0.108 g/L, pH 4.5): −0.05 | Δ log ([5]; 0.108 g/L, pH 6.75): 2.24 | Δ log ([5]; 0.30 g/L, pH 4.5): −0.28 | Δ log ([5]; 0.30 g/L, pH 6.75): 2.26 | Δ log ([5]; 0.83 g/L, pH 4.5): −0.16 | Δ log ([5]; 0.83 g/L, pH 6.75): 2.25 | inhibition of E. coli ([5]; pH 4.5): little or no inhibition | log cfu/mL ([5]; pH 4.5): 5.19 log cfu/mL and 4.96 log cfu/mL and 5.08 log cfu/mL | log reduction of E. coli growth ([5]; pH 4.5): approximately 0.1 log | inhibition of E. coli ([5]; pH 6.75): Neither Alimet® nor formic acid inhibited E. coli | log cfu/mL ([5]; pH 6.75): 7.48 log cfu/mL and 7.50 log cfu/mL and 7.49 log cfu/mL | Δ log ([6]; Table 23, 3 g/kg): −2.42 | Δ log ([6]; Table 23, 5 g/kg): −5.91 | effect on inhibiting the growth of S. enteritidis ([7]; pH 4.5): neither had a significant effect | reduction in S. enteritidis growth ([7]; pH 4.5): approximately 1.2 log cfu/mL | reduction of growth of S. enteritidis ([7]; pH 4.5): approximately 1.3 log cfu/mL | growth inhibition of S. enteritidis ([7]; pH 6.75): ~1 log cfu/mL | inhibition of S. enteritidis ([7]; pH 6.75): no inhibition | Δ log ([8]; 0.108 g/L, pH 4.5): −1.37 | Δ log ([8]; 0.108 g/L, pH 6.75): 1.04 | Δ log ([8]; 0.30 g/L, pH 4.5): −2.60 | Δ log ([8]; 0.30 g/L, pH 6.75): 1.15 | Δ log ([8]; 0.83 g/L, pH 4.5): <−3.93 | Δ log ([8]; 0.83 g/L, pH 6.75): 1.02 | inhibition of C. jejuni ([8]; pH 4.5): comparable inhibition | antibacterial activity against C. jejuni ([8]; pH 6.75): No antibacterial activity | log cfu/mL ([8]; pH 6.75): 6.27 log cfu/mL and 6.38 log cfu/mL and 6.25 log cfu/mL | inhibition of L. plantarum [9]: Neither Alimet® nor formic acid inhibited L. plantarum | Δ log ([9]; 0.108 g/L, pH 4.5): 0.71 | Δ log ([9]; 0.108 g/L, pH 6.75): 0.84 | Δ log ([9]; 0.30 g/L, pH 4.5): 0.70 | Δ log ([9]; 0.30 g/L, pH 6.75): 1.19 | Δ log ([9]; 0.83 g/L, pH 4.5): 0.52 | Δ log ([9]; 0.83 g/L, pH 6.75): 1.15 | log cfu/mL ([9]; pH 4.5): 5.75 log cfu/mL and 5.74 log cfu/mL and 5.56 log cfu/mL
